For series [1] the following is noted: available toxicity data on aminoglycosides; unit inferred; cited from earlier work.
In the next series the test system is human fibroblast cells. The note with it: cited from earlier work.
The test system of series [2] is Bacillus Subtilis ATCC 6633. Nature of the series: Antibacterial activity, MIC by double-microdilution method. It is filed as cell-based. The settings on record: Bacillus subtilis. The protocol: (§1) In order to compare the observed aminoglycoside-induced stop codon read-through activity in mammalian cells to antibacterial activity thereof, Compounds 1-9 were further investigated as antibacterial agents against both Gram-negative (E. coli) and Gram-positive (Bacillus subtilis) bacteria, and the minimal inhibitory concentration (MIC) values were determined by using a microdilution assay with paromomycin and gentamicin as controls, and the results are presented in Table 18 hereinabove.
(§2) The bacterial strains used were Escherichia coli ATCC 25922, and Bacillus Subtilis ATCC 6633. […] All the experiments were performed in triplicates and analogous results were obtained in two to four different experiments.

In series [3] the test system is Escherichia coli ATCC 25922. The series is described as above. Format: cell-based. The note with it: for MIC: Escherichia coli. On the procedure: as §1, §2
Series [4] relates to R3X nonsense mutation (a premature UGA C stop codon) of the PCDH15 gene. Nature of the series: In vitro suppression and translation, pDB650-R3X reporter plasmid in rabbit reticulocyte lysate coupled transcription/translation system. It is filed as biochemical, human. The settings on record: for Conc. (concentration at which maximal suppression level was observed) / Supp. level (%), maximal in-vitro mutation suppression: R3X mutation; for Conc. (concentration at which maximal suppression level was observed): in vitro; for Supp. level (%), maximal in-vitro mutation suppression: 35-kDa product out of total protein; for Supp. level (%), maximal in-vitro mutation suppression / Trans. level (%): at Conc. of maximal suppression; for Trans. level (%): total protein relative to no compound. The protocol: Initially, Compounds 1-9 were tested for their ability to suppress this nonsense mutation in vitro, using a reporter construct carrying the R3X nonsense mutation (a premature UGA C stop codon) of the PCDH15 gene. Mutations in the PCDH15 gene which encodes protocardherin 15, cause type 1 Usher syndrome (USH1), which is characterized by profound prelingual hearing loss, vestibular areflexia, and prepubertal onset of retinitis pigmentosa (RP). Four different PCDH15 USH1-causing nonsense mutations, R3X, R245X, R643X, and R929X, have been reported in humans.
Suppression of nonsense mutations by Compounds 1-9 was tested in vitro using a reporter plasmid harboring the R3X mutation of the PCDH15 gene. To create this plasmid, the oligonucleotides 5′-[…]-3′ (SEQ ID NO: 1) and 5′-[…]-3′ (SEQ ID NO: 2) were annealed to each other and inserted into the BamHI and HindIII sites of plasmid pDB650 [6].
The resulting reporter plasmid pDB650-R3X contained a TGA C nonsense mutation between a 25-kDa polypeptide encoding open reading frame (ORF) and a 10-kDa polypeptide encoding ORF.
The plasmid was transcribed and translated in a rabbit reticulocyte lysate coupled transcription/translation system (Promega) in the presence of [^35S]-methionine, and the reaction products were separated by SDS-PAGE and quantified using Phosphorlmager analysis. The mutation suppression level was calculated as the relative proportion of the 35-kDa product out of total protein (the sum of 35-kDa and 25-kDa), and the translation level was calculated as the relative proportion of the total protein at each tested compound concentration out of the total protein without the presence of the tested compounds.
The tested concentrations of paromomycin were 0, 5, 10, 20, 30 and 40 μg/ml, tested concentrations of gentamicin were 0, 5, 10, 20, and 30 μg/ml, and the tested concentrations of Compounds 1-9 were in the range of 0-160 μg/ml.
Compound 37 was tested for its ability to suppress a nonsense mutation in-vitro, using a reporter construct carrying either R3X nonsense mutation (a premature UGA C stop codon) or R245X nonsense mutation (a premature UGA A stop codon) of the PCDH15 gene, using gentamicin, paromomycin and Compound 3 as standards and following the experimental procedures presented hereinabove.
For the rat-PGM-β-Gal in vitro readthrough system, the pDB series of reporter plasmids harbor the following elements under SP6 promoter control: an open reading frame (ORF) derived from the 5′ end of the rat PGM gene, which encodes a 25-kDa polypeptide; another small ORF, encoding the 10-kDa alpha complementation region of β-galactosidase, and terminated by tandem, in-frame stop codons (UAA UAG); located between the two ORFs is a DNA fragment derived from PCDH15 cDNA, including the tested stop mutation or the corresponding wild-type codon, and six upstream and downstream flanking codons (except for p.R3X constructs, in which there are only two upstream PCDH15-flanking codons). The fragments were created by annealing the following couples of complementary oligonucleotides:
The fragments were inserted into the BamHI and HindIII restriction sites of the pDB read-through construct. Reporter plasmids harboring each of the four nonsense mutations and the corresponding wt alleles were in vitro transcribed and translated using the TNT SP6 Coupled Reticulocyte lysate System (Promega) in the presence of [^35S]-methionine and increasing concentrations of aminoglycosides as described previously. […] The degree of suppression was calculated as the relative proportion of the 35-kDa product out of total reaction products (35-kDa and 25-kDa polypeptides). The results are averages of at least three independent experiments.

The test system of series [5] is R3X (PCDH15, Usher Syndrome). Nature of the series: Dual luciferase in vitro transcription/translation assay. Format: biochemical, human. The text has this:
(§3) DNA fragments derived from the subsequent genes, including the tested stop mutation or the corresponding wild-type codon, and four upstream and downstream flanking codons (except for p.R3X constructs, in which there are only two upstream PCDH15-flanking codons) were cloned into p2Luc plasmid between renilla and firefly luciferase genes as described previously. The formed plasmids, as well as the original p2Luc plasmid containing a TGA C nonsense mutation, were transcribed and translated in vitro and the stop codon suppression efficiency was calculated as described previously.
(§4) For the dual luciferase in vitro transcription/translation assay, DNA fragments derived from PCDH15, CFTR, Dystrophin and IDUA cDNAs, including the tested stop mutation or the corresponding wild-type codon, and four upstream and downstream flanking codons (except for p.R3X constructs, in which there are only two upstream PCDH15-flanking codons) were created by annealing the couples of complementary oligonucleotides presented above.
(§5) Fragments were inserted into the SalI and SacI restriction sites of the p2Luc plasmid between renilla and firefly luciferase genes. The afforded plasmids, as well as the original p2Luc plasmid containing a TGA C nonsense mutation, were transcribed and translated using the TNT Reticulocyte Lysate Quick Coupled Transcription/Translation System (Promega™). Each transcription/translation reaction (10 μl, total volume) contained 8 μl TNT T7 Quick Master Mix, 0.2 μl methionine (1 mM), 0.8 μl DNA template (2 μg/μl), 1 μl of either water (blank) or 1 μl solution of increasing concentrations of the tested aminoglycosides in water. Luciferase activity was determined following 90 minutes incubation at 30° C. using the Dual Luciferase Reporter Assay System (Promega™). The total luminescence produced by each one of the proteins was measured separately using the FLx800 multidetection plate reader (Bio-Tek) and the stop codon suppression efficiency was calculated as described previously. The results are averages of at least three independent experiments.

Series [6] concerns original p2Luc plasmid containing a TGA C nonsense mutation. Described as above. Format: biochemical.
Source text: as §3, §4, §5

Setting [7] is: ATCC6633, ATCC 6633, read-out: MIC B. Subtilis.
Where [8] appears, read: ATCC25922, ATCC 25922, read-out: MIC E. coli.

Values after ≈ are worked out from the molar mass of the structure shown. Read-outs that look alike come from different tables or passages of the source.

Consider `NC[C@H]1O[C@H](O[C@H]2[C@H](O)[C@@H](O[C@H]3O[C@H](CO)[C@@H](O)[C@H](N)[C@H]3O)[C@H](N)C[C@@H]2N)[C@H](N)[C@@H](O)[C@@H]1O` [kanamycin B], for which the 50% lethal dose (LD50) in series [1] is 132 mg/kg.
`NC[C@H]1O[C@H](O[C@H]2[C@H](O)[C@@H](O)[C@H](N)C[C@@H]2N)[C@H](N)[C@@H](O)[C@@H]1O` [neamine]: in series [1], the LD50 is 125 mg/kg.
For the molecule `NC[C@H]1O[C@H](O[C@H]2[C@H](O)[C@@H](O[C@H]3O[C@H](CO)[C@@H](O)[C@H](N)[C@H]3O)[C@H](N)C[C@@H]2N)[C@H](O)[C@@H](O)[C@@H]1O` [kanamycin], in the series on human fibroblast cells, the “LD50 against human fibroblast cells” value was 2.5 to 5.0 mg/mL.
Take `NCC[C@H](O)C(=O)N[C@@H]1C[C@H](N)[C@@H](O[C@H]2O[C@H](CN)[C@@H](O)[C@H](O)[C@H]2O)[C@H](O)[C@H]1O[C@H]1O[C@H](CO)[C@@H](O)[C@H](N)[C@H]1O` [amikacin]: the 50% lethal dose (LD50) in series [1] is 300 mg/kg.
On to `CN[C@@H]1[C@@H](O)[C@@H](O[C@@H]2[C@@H](O)[C@H](O[C@H]3O[C@H]([C@@H](C)O)[C@@H](O)[C@H](O)[C@H]3N)[C@@H](N)C[C@H]2N)OC[C@]1(C)O` [Compound G-418, G-418], for which the “LD50 against human fibroblast cells” value in the series on human fibroblast cells (ref [49]) was 0.04 mg/mL.
On to `NCCC(O)C(=O)NC1CC(N)C(OC2OC(CN)C(O)C(O)C2N)C(O)C1O` (centres unmarked) [N1-AHB-neamine], for which, in series [1], the median lethal dose (LD50) was 260 mg/kg.
In the case of `NC[C@H]1O[C@@H](OC2C(N)[C@@H](O[C@@H]3C(N)C[C@@H](N)C(O)C3O)OC(CO)[C@H]2O)C(O)C1O` (some centres unmarked) [Compound 7], the MIC in series [2] (setting [7]) is 48 µg/mL (≈ 106 µM). The MIC in series [3] (setting [8]) was determined as 192 µg/mL (≈ 422 µM). In series [4], the “Conc. (concentration at which maximal suppression level was observed)” value is 80 µg/mL; the “Supp. level (%), maximal in-vitro mutation suppression” value (“Supp. level (%)” for short) turned out to be 2.9 ± 2%; the “Trans. level (%)” value is 98 ± 10%.
On to `N[C@@H]1[C@@H](O)[C@@H](O[C@@H]2[C@@H](O)[C@H](O[C@H]3O[C@H](CO)[C@@H](O)[C@H](O)[C@H]3N)[C@@H](N)C[C@H]2N)O[C@H](CO)[C@H]1O` [kanamycin C], for which the LD50 in series [1] was 225 mg/kg.
For `NC1CC(N)[C@@H](O[C@H]2OC(CO)[C@@H](O)C(O)C2N)C(O)C1O` (some centres unmarked) [Compound 1, Paromamine], the MIC in series [2] (ATCC6633, read-out: MIC B. Subtilis) stood at 128 µg/mL (≈ 396 µM). In addition, the minimal inhibitory concentration (MIC) in series [3] (ATCC25922, read-out: MIC E. coli) amounted to 512 µg/mL (≈ 1580 µM). In addition, in series [4], the “Conc. (concentration at which maximal suppression level was observed)” value was found to be 80 µg/mL; the “Supp. level (%)” value was determined as 6.2%; the “Trans. level (%)” value is given as 74 ± 15%. Also, the “Supp. level (%)” value in series [4] (listed as Paromamine) came to 6.2 ± 0.2%. Further, in series [5], the “Maximum in vitro suppression (%) R3X” value is 0.6 ± 0.1%. Besides, the “Conc. (μM) at which maximum suppression level was achieved” value in series [6] (dual luciferase in vitro system, all constructs of Table 21) is 490 µM. The “Maximum in vitro suppression (%) UGAC” value in series [6] (p2luc) was determined as 1.1 ± 0.1%.
For the molecule `NC1C[C@@H](N)[C@@H](O[C@@H]2O[C@H](CO)[C@H](O)C2O)[C@@H](O)[C@@H]1O[C@H]1OC(CO)[C@@H](O)[C@H](O)[C@@H]1N` (stereo partly drawn) [Compound 4, (3S,4R,5S,6S)-5-amino-6-((1R,2S,3R,4R)-4,6-diamino-3-((2R,4R,5R)-3,4-dihydroxy-5-(hydroxymethyl)-tetrahydrofuran-2-yloxy)-2-hydroxycyclohexyloxy)-2-(hydroxymethyl)-tetrahydro-2H-pyran-3,4-diol], the MIC in series [2] (setting [7]) is 96 µg/mL (≈ 211 µM). The MIC in series [3] (setting [8]) was 256 µg/mL (≈ 562 µM). In addition, in series [4], the “Conc. (concentration at which maximal suppression level was observed)” value worked out at 80 µg/mL; the “Supp. level (%)” value is listed as 1.5 ± 0.1%; the “Trans. level (%)” value is on record as 74 ± 7%.
Take `NC1C(N)[C@H](O)C(CO)O[C@@H]1O[C@@H]1C(N)C[C@@H](N)C(O)C1O` (some centres unmarked) [Compound 8]: the minimal inhibitory concentration (MIC) in series [2] (setting [7]) stood at 48 µg/mL (≈ 149 µM). The MIC in series [3] (setting [8]) is 192 µg/mL (≈ 596 µM). Moreover, the “fold lower antimicrobial activity as compared to paromomycin” value in series [3] (from Table 18, E. coli and B. subtilis) was 6-16 fold. In series [4], the “Conc. (concentration at which maximal suppression level was observed)” value was determined as 80 µg/mL; the “Supp. level (%)” value was found to be 2.0 ± 2%; the “Trans. level (%)” value is reported as 71 ± 7%.
For `NC[C@H]1O[C@@H](OC2C(O)[C@H](O[C@H]3OC(CO)[C@@H](O)C(O)C3N)C(N)C[C@H]2N)C(O)C1O` (some centres unmarked) [Compound 5], the MIC in series [2] (setting [7]) worked out at 192 µg/mL (≈ 422 µM). Moreover, the MIC in series [3] (setting [8]) was > 512 µg/mL. Besides, in series [4], the “Conc. (concentration at which maximal suppression level was observed)” value came out at 80 µg/mL; the “Supp. level (%)” value is 4.4 ± 2%; the “Trans. level (%)” value was determined as 75 ± 9%.
The like results for `NC1C[C@@H](N)[C@@H](O)[C@@H](O[C@@H]2O[C@H](CO)[C@H](O)C2O)[C@@H]1O[C@H]1OC(CO)[C@@H](O)[C@H](O)[C@@H]1N` (stereo partly drawn) [Compound 2, (3S,4R,5S,6S)-5-amino-6-((1R,2R,3R,4R)-4,6-diamino-2-((2S,4R,5R)-3,4-dihydroxy-5-(hydroxymethyl)-tetrahydrofuran-2-yloxy)-3-hydroxycyclohexyloxy)-2-(hydroxymethyl)-tetrahydro-2H-pyran-3,4-diol] were, in that order, 64 µg/mL (≈ 141 µM), 256 µg/mL (≈ 562 µM), 80 µg/mL, 1.3 ± 0.1% and 100 ± 10%.
The like results for `NC1C(OCOC2C(N)[C@H](O[C@H]3C(N)C[C@H](N)C(O)C3O)OC(CO)[C@@H]2O)[C@H](O)C(CO)O[C@@H]1O[C@@H]1C(N)C[C@@H](N)C(O)C1O` (some centres unmarked) [Compound 9] were, in that order, 48 µg/mL (≈ 72.9 µM), 96 µg/mL (≈ 146 µM), 80 µg/mL, <1% and 22 ± 2%.
